Measured values: ChEMBL document CHEMBL1201862, “PubChem BioAssay data set” (2004)
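Protocol summary: plate cells (96-well), add compound at 5 concentrations, incubate 48 h, interpolate endpoints linearly. The concentration for 50% growth inhibition is given as GI50.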 Activity calls are given as the source filed them. No stated cut-off is given here; in the data, active = GI50 up to about 1.1 µM and inactive = higher.

Assays:
Test in all cases: NCI tumour cell line growth inhibition, 48 h
XF498 = system: XF498
DLD-1 = system: DLD-1
HOP-18 = system: HOP-18
DMS-114 = system: DMS-114
SNB-78 = system: SNB-78
LXFL 529 = system: LXFL 529
M19-MEL = system: M19-MEL
DMS-273 = system: DMS-273
RXF 631 = system: RXF 631

Row | Compound | GI50 (XF498) | GI50 (DLD-1) | GI50 (HOP-18) | GI50 (DMS-114) | GI50 (SNB-78) | GI50 (LXFL 529) | GI50 (M19-MEL) | GI50 (DMS-273) | GI50 (RXF 631)
1 | COCOCC/C=C/C=O | > 100 µM (inactive) | > 100 µM (inactive) | > 100 µM (inactive) | > 100 µM (inactive) | > 100 µM (inactive) | > 100 µM (inactive) |  |  | 
2 | CN(C)CC(C)(C)C(=O)/C=C/c1ccccc1 | 11.6 µM (inactive) | 12.6 µM (inactive) | 17.1 µM (inactive) | 14.2 µM (inactive) | 14.7 µM (inactive) | 12.3 µM (inactive) | 16.3 µM (inactive) | 16.9 µM (inactive) | 
3 | CN(C)CCn1cnc2sc3ccccc3c21 | > 100 µM (inactive) |  | 20.2 µM (inactive) | > 100 µM (inactive) | > 100 µM (inactive) | > 100 µM (inactive) | > 100 µM (inactive) |  | > 100 µM (inactive)
4 | CCCN(CCCC(NC(C)=O)C(=O)NCc1ccccc1)C(=O)NC (configuration not stated) |  | > 100 µM (inactive) |  | > 100 µM (inactive) | > 100 µM (inactive) | > 100 µM (inactive) | > 100 µM (inactive) | > 100 µM (inactive) | > 100 µM (inactive)
5 | COc1ccccc1NC(=O)C(CC(C(=O)Nc1ccccc1OC)/C(C)=N/Nc1ccc([N+](=O)[O-])cc1[N+](=O)[O-])/C(C)=N/Nc1ccc([N+](=O)[O-])cc1[N+](=O)[O-] (configuration not stated) | 51.6 µM (inactive) | 80.4 µM (inactive) | > 95.3 µM (inactive) |  | > 100 µM (inactive) | 32.4 µM (inactive) | > 100 µM (inactive) | 56 µM (inactive) | 40.6 µM (inactive)
6 | CCN(C(=N)C#N)c1ccccc1 |  | > 40.7 µM (inactive) | > 100 µM (inactive) | > 54.8 µM (inactive) |  | > 100 µM (inactive) | > 55.1 µM (inactive) | > 42.5 µM (inactive) | > 100 µM (inactive)
7 | CC(=O)[C@]1(O)Cc2c(O)c3c(c(O)c2[C@@H](OC2CC(N)C(O)C(C)O2)C1)C(=O)c1c(OCc2ccccc2)cccc1C3=O (some centres not stated) | 1.6 µM (inactive) |  | 1.71 µM (inactive) | 1.36 µM (inactive) | 4.38 µM (inactive) | 1.14 µM (inactive) |  | 0.302 µM (active) | 
8 | O=c1c2ccccc2nc2n1-c1ccccc1SC2 | 30.6 µM (inactive) | 55.5 µM (inactive) |  | 34.7 µM (inactive) | > 100 µM (inactive) | 34.4 µM (inactive) | 67.1 µM (inactive) | 47.2 µM (inactive) | 93.5 µM (inactive)
9 | C=CC1(C)/C(=N\O)C(C)(CC)C(=O)N1O (configuration not stated) | > 100 µM (inactive) | > 100 µM (inactive) | > 100 µM (inactive) | > 100 µM (inactive) | > 100 µM (inactive) | > 100 µM (inactive) | > 100 µM (inactive) | > 100 µM (inactive) | > 100 µM (inactive)
10 | CC(Oc1ccc(Oc2cnc3ccc(Cl)cc3n2)cc1)C(=O)O (configuration not stated) | > 100 µM (inactive) | > 100 µM (inactive) | > 100 µM (inactive) | > 100 µM (inactive) | > 100 µM (inactive) | > 100 µM (inactive) | > 100 µM (inactive) | > 100 µM (inactive) | 
11 | COc1cc(C)c2c(c1C)OC(=O)c1c(C)c(Cl)c(O)c(C=O)c1O2 | 12.3 µM (inactive) | 11.6 µM (inactive) |  |  | 13.2 µM (inactive) | 13.9 µM (inactive) |  | 14.9 µM (inactive) | 15.5 µM (inactive)
12 | Cc1cc(C2CCCCC2)n(O)c(=O)c1 [CICLOPIROX OLAMINE] | 10.7 µM (inactive) | 5.46 µM (inactive) | 39.8 µM (inactive) | 4.74 µM (inactive) |  | 4.2 µM (inactive) | 7.52 µM (inactive) |  | 5.37 µM (inactive)
